{"source": "patent US12636291B2", "about": "“Compositions and methods relating to use of agonists of ALPHA5-containing GABAA receptors” (Centre for Addiction and Mental Health, priority 2019, dated 2026)", "tested_on": "SV129 mice", "experiment": "Neurogenesis (proliferation, survival, maturation) in the SV129 mouse model", "type": "in vivo", "settings": "compared to VEH", "text": "We next assessed the effects of GL-II-73 on neurogenesis using the SV129 mouse model Kim et al. 2017. Neural Plasticity, doi.org.10.1155/2017/5863258. Specifically, we assessed the effects of treatment on neuronal cell proliferation, survival, and maturation. It is now recognized that neurogenesis occurs not only during development, but also in the adult brain. […] Specifically, adult neurogenesis is known to occur in three regions in the mammalian brain: (i) the subgranular zone (SGZ) of the dentate gyrus in the hippocampus, which is a region that is involved in regulating learning and memory; (ii) the subventricular zone (SVZ), which is situated throughout the lateral walls of the brain's lateral ventricles; and (ii) the amygdala. New neurons born in the SGZ migrate into the granule cell layer of the dentate gyrus and eventually become granule cells. These newborn neurons integrate into the existing circuitry and receive functional input. Adult neurogenesis in the hippocampus is therefore defined as the progression from neural stem cell to mature dentate granule neuron. All stages of adult neurogenesis are regulated by physiological activity, including the proliferation, differentiation, fate determination of adult neural stem cells (NSCs) and progenitors, and the survival, maturation, and integration of newborn neurons.\nThe stages of neurogenesis can be broken down into (i) proliferation, (ii) survival of the newly formed cells, and (iii) their maturation. Each can be evaluated using specific markers for proliferation, survival, and maturation. […] BrdU can be used to show survival of the newly proliferating cells since it is incorporated into the newly synthesized DNA of replicating cells and is then maintained in the newly formed cells. Thus, quantitative immunohistochemistry against BrdU is used as a proxy of survival. Finally, doublecortin can be used as a proxy of maturation. Previous studies have shown that all steps of neurogenesis were down regulated in the SV129 mice, and further that chronic treatment with fluoxetine, a first line monoaminergic antidepressant, increased the neurogenesis in this mouse model. We therefore used this model system to assess the effects of chronic treatment with GL-II-73 on neurogenesis.\nFluoxetine treatment was used as a positive control in each experiment.", "data": [{"molecule": "C#Cc1ccc2c(c1)C(c1ccccc1F)=N[C@H](C)c1c(C(=O)N(C)C)ncn1-2", "note": "(stereo in doubt) [GL-II-73, 8-ethynyl-6-(2-fluorophenyl)-N,N,4-trimethyl-4H-benzo[f]imidazo[1,5-a][1,4]diazepine-3-carboxamide]", "values": [{"measurement": "proliferation: number of K167-positive cells", "setting": "chronic treatment (4 weeks), FIG. 13A, FLX p<0.001, GL-II-73 p<0.05", "value": "increased the number of K167-positive cells"}, {"measurement": "survival: BrdU-positive cells", "setting": "chronic treatment (4 weeks), FIG. 13B", "value": "increased survival as shown by the increased in BrdU labeling in SV129 mice, as shown in FIG. 13B, even though not reaching significance"}, {"measurement": "maturation index (DCX+cells possessing tertiary dendrites over the total DCX+cells)", "setting": "chronic treatment, FIG. 14B, ps<0.01", "value": "an increase with both FLX and GL-II-73"}]}]}
